# Earlier results, collected in article PMC8000448, “Inhibitory Effects of Schisandra Lignans on Cytochrome P450s and Uridine 5′-Diphospho-Glucuronosyl Transferases in Human Liver Microsomes” (Pharmaceutics, 2021).
# Where two headings read alike, the source gives them in different places.
# Assays:
# recombinant CYP3A4 [1] = conditions: recombinant CYP3A4 isoform; read-out: IC50, CYP3A-mediated midazolam 1′-hydroxylation; cited from earlier work
# CYP1A2 = system: CYP1A2; set-up: method as in PMID 15342469; conditions: cited from earlier work
# CYP2D6 = system: CYP2D6; set-up: method as in PMID 15342469; conditions: cited from earlier work
# CYP3A [2] = conditions: read-out: Ki, CYP3A-mediated testosterone hydroxylation; cited from earlier work
# CYP2C9 = system: CYP2C9; set-up: method as in PMID 15342469; conditions: cited from earlier work
# recombinant CYP3A4 [3] = conditions: rCYP3A4, fluorescent substrate; cited from earlier work
# CYP2C19 = system: CYP2C19; set-up: method as in PMID 15342469; conditions: cited from earlier work
# CYP3A [4] = system: CYP3A; set-up: method as in PMID 15342469; conditions: read-out: IC50, CYP3A-mediated testosterone hydroxylase activity; cited from earlier work
# CYP3A [5] = conditions: rats; cited from earlier work
# recombinant CYP2C19 = system: recombinant CYP2C19; set-up: method as in PMID 24855828; conditions: read-out: IC50, CYP2C19-catalyzed omeprazole hydroxylation; cited from earlier work
Compound,IC50 (recombinant CYP3A4 [1]) [µM],IC50 (CYP1A2) [µM],IC50 (CYP2D6) [µM],Ki (CYP3A [2]) [µM],IC50 (CYP2C9) [µM],IC50 (recombinant CYP3A4 [3]) [µM],IC50 (CYP2C19) [µM],IC50 (CYP3A [4]) [µM],Plasma concentrations of midazolam (CYP3A [5]),IC50 (recombinant CYP2C19) [µM]
gomisin A,1.86,> 10,> 10,1.01,> 10,1.39,> 10,–,–,–
gomisin B,–,> 10,> 10,–,> 10,–,> 10,0.26 to 0.62,–,–
"COc1cc2c(c(OC)c1OC)-c1c(cc3c(c1OC)OCO3)[C@H](OC(=O)c1ccccc1)[C@@](C)(O)[C@@H](C)C2 [gomisin G, reference compound]",0.19,–,–,–,–,–,–,–,–,–
"COc1cc2c(c(OC)c1OC)-c1c(cc(OC)c(OC)c1OC)C[C@H](C)[C@H](C)C2 [schisandrin A, reference compound]",–,–,–,–,–,–,–,–,markedly increases,86.4
